The text below walks through data of patent US8044069B2, “Compounds as calcium channel blockers” (Abbott Laboratories, priority 2008, dated 2011).

For one experiment, the target named is human Cav2.2 (Homo sapiens, UniProt Q00975). Kind of experiment: Assessment of calcium channel activity using FLIPR (Ca2+ influx in IMR32 cells). Format: cell-based. To be noted: IMR32 cells endogenously expressing human Cav2.2; 60 minute pre-incubation; 2 μM nifedipine; depolarized with 80 mM KCl, 5 mM CaCl2. The essentials: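 IMR32 cells were dye-loaded and pre-incubated 60 min with compound (10 μM to 0.1 nM) in 1.3 mM CaCl2 plus 2 μM nifedipine to block L-type channels. Cells were then depolarized with 80 mM KCl while Ca2+ was raised to 5 mM, and FLIPR read the influx. IC50 came from a sigmoidal fit of % inhibition versus the no-inhibitor control.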
human Cav2.2, sequence (Q00975 whole entry): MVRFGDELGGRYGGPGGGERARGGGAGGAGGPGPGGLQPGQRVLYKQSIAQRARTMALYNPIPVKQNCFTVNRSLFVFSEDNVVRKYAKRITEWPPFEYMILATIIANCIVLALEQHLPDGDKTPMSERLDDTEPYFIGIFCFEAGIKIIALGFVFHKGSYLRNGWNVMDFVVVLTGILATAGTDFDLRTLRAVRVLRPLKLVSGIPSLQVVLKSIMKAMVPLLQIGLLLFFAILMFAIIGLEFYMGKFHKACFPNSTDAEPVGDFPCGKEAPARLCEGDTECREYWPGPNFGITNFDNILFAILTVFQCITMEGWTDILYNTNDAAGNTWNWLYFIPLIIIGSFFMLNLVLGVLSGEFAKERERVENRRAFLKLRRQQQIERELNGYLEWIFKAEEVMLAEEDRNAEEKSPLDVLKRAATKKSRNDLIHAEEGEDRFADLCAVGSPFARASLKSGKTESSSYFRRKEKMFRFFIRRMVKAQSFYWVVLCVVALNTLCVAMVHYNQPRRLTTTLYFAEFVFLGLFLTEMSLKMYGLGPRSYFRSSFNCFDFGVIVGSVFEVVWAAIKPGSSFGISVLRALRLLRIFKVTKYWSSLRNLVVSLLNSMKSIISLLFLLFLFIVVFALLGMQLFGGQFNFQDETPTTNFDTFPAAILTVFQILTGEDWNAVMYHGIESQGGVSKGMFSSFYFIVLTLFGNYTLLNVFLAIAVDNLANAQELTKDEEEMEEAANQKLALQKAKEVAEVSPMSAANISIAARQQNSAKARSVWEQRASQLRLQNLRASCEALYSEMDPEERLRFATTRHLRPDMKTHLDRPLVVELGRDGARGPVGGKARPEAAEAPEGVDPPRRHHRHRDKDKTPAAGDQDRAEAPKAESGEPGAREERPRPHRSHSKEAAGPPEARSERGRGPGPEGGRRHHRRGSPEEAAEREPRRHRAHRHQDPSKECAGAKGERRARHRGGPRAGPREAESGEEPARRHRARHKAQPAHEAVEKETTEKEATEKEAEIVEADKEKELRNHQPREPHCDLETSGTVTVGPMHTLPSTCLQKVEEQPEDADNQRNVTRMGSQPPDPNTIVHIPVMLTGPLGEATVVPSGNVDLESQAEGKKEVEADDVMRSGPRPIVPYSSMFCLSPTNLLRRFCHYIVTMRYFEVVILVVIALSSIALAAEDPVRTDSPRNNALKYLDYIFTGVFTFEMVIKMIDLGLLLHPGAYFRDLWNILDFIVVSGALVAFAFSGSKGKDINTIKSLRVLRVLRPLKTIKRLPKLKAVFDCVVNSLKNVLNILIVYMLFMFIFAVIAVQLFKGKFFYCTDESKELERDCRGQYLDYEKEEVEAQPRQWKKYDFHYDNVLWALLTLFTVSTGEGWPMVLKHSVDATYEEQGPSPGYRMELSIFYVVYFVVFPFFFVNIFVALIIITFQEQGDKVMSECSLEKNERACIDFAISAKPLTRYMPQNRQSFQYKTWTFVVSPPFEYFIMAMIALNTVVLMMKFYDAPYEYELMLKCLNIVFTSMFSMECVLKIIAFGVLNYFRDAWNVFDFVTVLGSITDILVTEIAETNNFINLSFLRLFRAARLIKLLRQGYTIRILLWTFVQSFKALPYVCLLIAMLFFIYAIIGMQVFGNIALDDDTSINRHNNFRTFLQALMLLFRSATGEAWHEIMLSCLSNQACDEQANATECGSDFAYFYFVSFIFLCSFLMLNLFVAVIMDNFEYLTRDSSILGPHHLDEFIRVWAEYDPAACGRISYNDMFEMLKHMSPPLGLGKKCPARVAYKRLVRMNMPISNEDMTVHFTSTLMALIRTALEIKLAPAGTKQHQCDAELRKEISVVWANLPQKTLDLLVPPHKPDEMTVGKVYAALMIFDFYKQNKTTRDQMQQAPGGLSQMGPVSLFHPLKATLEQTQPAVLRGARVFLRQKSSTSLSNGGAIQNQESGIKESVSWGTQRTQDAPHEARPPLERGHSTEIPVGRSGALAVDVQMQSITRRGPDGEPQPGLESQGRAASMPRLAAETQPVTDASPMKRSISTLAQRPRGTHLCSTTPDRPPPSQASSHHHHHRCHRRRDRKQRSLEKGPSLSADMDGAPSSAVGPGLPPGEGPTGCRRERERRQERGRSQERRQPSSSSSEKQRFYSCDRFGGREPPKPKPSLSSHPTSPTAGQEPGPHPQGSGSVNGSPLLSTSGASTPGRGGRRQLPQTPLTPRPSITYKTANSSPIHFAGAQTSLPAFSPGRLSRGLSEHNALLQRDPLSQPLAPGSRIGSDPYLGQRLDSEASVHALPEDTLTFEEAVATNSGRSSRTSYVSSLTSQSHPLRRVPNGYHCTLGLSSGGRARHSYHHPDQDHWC
human Cav2.2, sequence (P54289 25-951 partner limits assumed): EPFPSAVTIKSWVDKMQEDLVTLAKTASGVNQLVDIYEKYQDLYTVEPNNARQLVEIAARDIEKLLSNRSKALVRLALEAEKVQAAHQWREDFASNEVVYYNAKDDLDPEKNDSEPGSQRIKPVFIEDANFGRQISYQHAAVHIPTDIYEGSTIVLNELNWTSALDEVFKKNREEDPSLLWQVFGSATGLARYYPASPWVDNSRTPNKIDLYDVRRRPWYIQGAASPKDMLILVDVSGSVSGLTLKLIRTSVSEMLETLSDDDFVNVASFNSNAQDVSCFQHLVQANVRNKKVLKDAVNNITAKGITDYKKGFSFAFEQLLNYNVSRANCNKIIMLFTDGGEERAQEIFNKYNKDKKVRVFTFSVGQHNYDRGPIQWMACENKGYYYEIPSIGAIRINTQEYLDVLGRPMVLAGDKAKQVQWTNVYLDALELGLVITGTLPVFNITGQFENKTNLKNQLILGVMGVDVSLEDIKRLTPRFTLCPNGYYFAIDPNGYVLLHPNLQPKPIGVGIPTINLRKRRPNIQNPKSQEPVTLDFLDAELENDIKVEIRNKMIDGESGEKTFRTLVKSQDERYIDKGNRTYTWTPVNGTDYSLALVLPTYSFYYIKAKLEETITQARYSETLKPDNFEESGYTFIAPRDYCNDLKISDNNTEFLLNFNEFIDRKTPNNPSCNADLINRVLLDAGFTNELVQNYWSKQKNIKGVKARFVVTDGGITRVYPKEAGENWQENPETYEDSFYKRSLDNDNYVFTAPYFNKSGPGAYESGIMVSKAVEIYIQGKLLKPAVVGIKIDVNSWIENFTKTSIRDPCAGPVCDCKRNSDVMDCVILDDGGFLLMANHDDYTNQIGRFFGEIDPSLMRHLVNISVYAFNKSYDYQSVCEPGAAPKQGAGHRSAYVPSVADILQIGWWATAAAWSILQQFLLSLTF
human Cav2.2, sequence (P54289 952-1103 partner limits assumed): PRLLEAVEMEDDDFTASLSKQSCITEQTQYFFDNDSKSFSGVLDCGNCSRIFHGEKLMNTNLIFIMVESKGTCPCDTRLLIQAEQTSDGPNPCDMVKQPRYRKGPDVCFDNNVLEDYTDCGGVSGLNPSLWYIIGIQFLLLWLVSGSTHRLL
human Cav2.2, sequence (P54284 whole entry partner): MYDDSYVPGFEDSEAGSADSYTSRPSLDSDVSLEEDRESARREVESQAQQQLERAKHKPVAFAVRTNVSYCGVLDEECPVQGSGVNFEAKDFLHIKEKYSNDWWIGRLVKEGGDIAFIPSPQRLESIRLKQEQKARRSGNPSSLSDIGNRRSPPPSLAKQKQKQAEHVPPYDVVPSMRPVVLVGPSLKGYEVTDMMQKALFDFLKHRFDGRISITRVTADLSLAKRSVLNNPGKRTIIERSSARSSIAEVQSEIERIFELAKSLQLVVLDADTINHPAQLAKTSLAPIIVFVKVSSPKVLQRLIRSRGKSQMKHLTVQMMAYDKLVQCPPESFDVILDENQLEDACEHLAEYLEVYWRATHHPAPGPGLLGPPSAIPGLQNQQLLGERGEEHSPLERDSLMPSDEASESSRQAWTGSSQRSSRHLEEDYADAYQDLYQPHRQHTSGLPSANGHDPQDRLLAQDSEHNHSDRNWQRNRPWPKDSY

The next experiment concerns Sprague Dawley rats. Kind of experiment: Capsaicin induced secondary mechanical hyperalgesia model. The settings on record: Rattus norvegicus, po, 1 h; 30 mg/kg p.o., 60 minutes before testing; secondary mechanical hyperalgesia 180 minutes after capsaicin; von Frey paw withdrawal threshold. The experiment is classed as in vivo. The method, then:
(ii) In Vivo Data—Capsaicin Induced Secondary Mechanical Hyperalgesia Model:
Sprague Dawley rats were briefly restrained, and capsaicin was administered at 10 μg in 10 μL of vehicle by intraplantar injection into the center of the right hind paw. Secondary mechanical hyperalgesia (SMH) was measured at the heel away from the site of injection 180 minutes following capsaicin exposure. Compounds and gabapentin (positive control), were administered p.o. 60 minutes before testing (2 hours after capsaicin) or i.p. 30 minutes before testing (2.5 hours after capsaicin). SMH was measured using calibrated von Frey filaments (Stoelting, Woodale, Ill.). Following the 1 hour habituation in the testing room, rats were moved to individual plexiglass chambers that sit on top of a wire mesh to allow for access for stimulation of the plantar surface of the hind paws. Rats were allowed to acclimate to the new chambers for 15 minutes before the onset of testing. The paw withdrawal threshold was determined by increasing and decreasing stimulus intensity (force: g) and calculated using Dixon's up-down method (Chaplan, S. R.; Bach, F. W.; Pogrel, J. W.; Chung, J. M.; Yaksh, T. L.; Quantitative assessment of tactile allodynia in the rat paw. J. Neuroscience Methods 1994, 53(1), 55-63). The filaments (maximum force of 15.0 g) were held in place for 8 seconds or until there was a withdrawal response from the mechanical stimulation.

The term IC50 denotes the midpoint of a concentration-inhibition curve. What is called inhibition in vivo is the relative decrease from the control value, in per cent.

In the case of `O=C(CN1CCC(c2ccc(F)cc2)(c2ccc(F)cc2)C1=O)N1CCN(C(c2ccccc2)c2ccccc2)CC1` [Example 58, 1-[2-(4-benzhydrylpiperazin-1-yl)-2-oxoethyl]-3,3-bis(4-fluorophenyl)pyrrolidin-2-one], on human Cav2.2, the half-maximal inhibitory concentration (IC50) amounted to 830 nM. This compound also yielded an inhibition in vivo at 30 mg/kg in the experiment with Sprague Dawley rats of 97%.

Turning to `O=C(CN1CCCC(c2ccccc2)C1=O)N1CCN(C(c2ccccc2)c2ccccc2)CC1` (centres unmarked) [Example 91, 1-[2-(4-benzhydrylpiperazin-1-yl)-2-oxoethyl]-3-phenylpiperidin-2-one], the IC50 at human Cav2.2 came out at 2180 nM. This compound registered an inhibition in vivo at 30 mg/kg with Sprague Dawley rats of 58%.

For the compound `O=C(CN1CCC(c2ccccc2)(c2ccccc2)C1=O)N1CCC(c2ccccc2)(c2ccccc2)C1` [Example 17, 1-[2-(3,3-diphenylpyrrolidin-1-yl)-2-oxoethyl]-3,3-diphenylpyrrolidin-2-one], the IC50 on human Cav2.2 came out at 780 nM. Besides, testing at 30 mg/kg with Sprague Dawley rats gave an inhibition in vivo of 50%. The corresponding values for `O=C(CN1CCCC(c2ccccc2)(c2ccccc2)C1=O)N1CCN(Cc2cccc(C(F)(F)F)c2)CC1` [Example 79, 1-(2-oxo-2-{4-[3-(trifluoromethyl)benzyl]piperazin-1-yl}ethyl)-3,3-diphenylpiperidin-2-one] are 930 nM and 49%. Taken in the same sequence, the figures for `O=C(CN1CCCC(c2ccccc2)(c2ccccc2)C1=O)N1CCC(c2ccccc2)(c2ccccc2)CC1` [Example 72, 1-[2-(4,4-diphenylpiperidin-1-yl)-2-oxoethyl]-3,3-diphenylpiperidin-2-one] were 660 nM and 78%. In the case of `COc1cc(CN2CCN(CCCN3CCCC(c4cccc(OC)c4)(C(C)C)C3=O)CC2)cc(OC)c1` (centres unmarked) [Example 133, 1-{3-[4-(3,5-dimethoxybenzyl)piperazin-1-yl]propyl}-3-isopropyl-3-(3-methoxyphenyl)piperidin-2-one], the concentration for half-maximal inhibition (IC50) on human Cav2.2 was determined as 670 nM.

As for `O=C(CN1CCC(c2ccccc2)(c2ccccc2)C1=O)NCc1cccc(C(F)(F)F)c1` [Example 7, 2-(2-oxo-3,3-diphenylpyrrolidin-1-yl)-N-[3-(trifluoromethyl)benzyl]acetamide], the concentration for half-maximal inhibition (IC50) on human Cav2.2 came out at 2330 nM. Same read-out and setting: the value for `O=C(CN1CCC(c2ccccc2)(c2ccccc2)C1=O)Nc1ccc(Cl)cn1` [Example 5, N-(5-chloropyridin-2-yl)-2-(2-oxo-3,3-diphenylpyrrolidin-1-yl)acetamide] was 4510 nM. Same read-out and setting: the value for `COc1cccc(CCN(C)CCCN2CCCC(c3cccc(OC)c3)(C(C)C)C2=O)c1` (centres unmarked) [Example 128, 3-isopropyl-3-(3-methoxyphenyl)-1-{3-[[2-(3-methoxyphenyl)ethyl](methyl)amino]propyl}piperidin-2-one] was 1120 nM; that for `O=C1N(Cc2nc(-c3ccc(C(F)(F)F)nc3)no2)CCC1(c1ccccc1)c1ccccc1` [Example 211, 3,3-diphenyl-1-({3-[6-(trifluoromethyl)pyridin-3-yl]-1,2,4-oxadiazol-5-yl}methyl)pyrrolidin-2-one] was 3150 nM; that for `COc1cccc(C2(C(C)C)CCCN(CCCN(C)CCc3ccc(F)cc3)C2=O)c1` (centres unmarked) [Example 129, 1-{3-[[2-(4-fluorophenyl)ethyl](methyl)amino]propyl}-3-isopropyl-3-(3-methoxyphenyl)piperidin-2-one] was 1140 nM. The same measure, in the same setting: the result for `O=C1C(c2ccc(F)cc2)CCN1Cc1nc(-c2ccc(C(F)(F)F)nc2)no1` (centres unmarked) [Example 238, 3-(4-fluorophenyl)-1-({3-[6-(trifluoromethyl)pyridin-3-yl]-1,2,4-oxadiazol-5-yl}methyl)pyrrolidin-2-one] reads 12400 nM; that for `O=C(CN1CCC(c2ccc(F)cc2)(c2ccc(F)cc2)C1=O)N1CCN(Cc2cccc(C(F)(F)F)c2)CC1` [Example 60, 3,3-bis(4-fluorophenyl)-1-(2-oxo-2-{4-[3-(trifluoromethyl)benzyl]piperazin-1-yl}ethyl)pyrrolidin-2-one], 1010 nM. For the compound `O=C(CN1CCCC(c2ccccc2)(c2ccccc2)C1=O)N1CCC(Oc2cccc(C(F)(F)F)c2)CC1` [Example 162, 1-(2-oxo-2-{4-[3-(trifluoromethyl)phenoxy]piperidin-1-yl}ethyl)-3,3-diphenylpiperidin-2-one], on human Cav2.2, the half-maximal inhibitory concentration (IC50) was determined as 1860 nM.

For `O=C(CN1CCC(c2ccccc2)(c2ccccc2)C1=O)Nc1cccc(C(F)(F)F)n1` [Example 247, 2-(2-oxo-3,3-diphenylpyrrolidin-1-yl)-N-[6-(trifluoromethyl)pyridin-2-yl]acetamide], the IC50 on human Cav2.2 was determined as 4480 nM. The same measure, in the same setting: the value for `CC(C)N1CCN(CC(=O)N2CCN(C(c3ccc(F)cc3)c3ccc(F)cc3)CC2)C(=O)C1c1ccccc1` (centres unmarked) [Example 273, 1-(2-(4-(bis(4-fluorophenyl)methyl)piperazin-1-yl)-2-oxoethyl)-4-isopropyl-3-phenylpiperazin-2-one] was 2480 nM; that for `CC1(NC(=O)CN2CCCC(c3ccccc3)(c3ccccc3)C2=O)CCN(Cc2ccccc2)C1` (centres unmarked) [Example 89, N-(1-benzyl-3-methylpyrrolidin-3-yl)-2-(2-oxo-3,3-diphenylpiperidin-1-yl)acetamide] was 3000 nM; that for `O=C(CN1CCCC(c2ccccc2)(c2ccccc2)C1=O)NC1CN(C(c2ccccc2)c2ccccc2)C1` [Example 176, N-(1-benzhydrylazetidin-3-yl)-2-(2-oxo-3,3-diphenylpiperidin-1-yl)acetamide] was 1030 nM. On the same count and under the same terms, the value for `O=C(CN1CCCC(c2ccc(F)cc2)(c2ccc(F)cc2)C1=O)N1CCC(c2ccccc2)(c2ccccc2)CC1` [Example 173, 1-[2-(4,4-diphenylpiperidin-1-yl)-2-oxoethyl]-3,3-bis(4-fluorophenyl)piperidin-2-one] was 3880 nM.

Take `O=C(CN1CCC(c2ccc(F)cc2)C1=O)N1CCc2cc(Cl)ccc2C1` (centres unmarked) [Example 257, 1-[2-(6-chloro-3,4-dihydroisoquinolin-2(1H)-yl)-2-oxoethyl]-3-(4-fluorophenyl)pyrrolidin-2-one]: the IC50 at human Cav2.2 was determined as 6160 nM. On the same count and under the same terms, the value for `O=C1N(S(=O)(=O)c2cccc(C(F)(F)F)c2)CCCC1(c1ccccc1)c1ccccc1` [Example 146, 3,3-diphenyl-1-{[3-(trifluoromethyl)phenyl]sulfonyl}piperidin-2-one] was 6780 nM; that for `COCc1cc(/C=C/c2ccccc2OCC(O)CN(C)CCN2CCC(c3ccc(F)cc3)(c3ccc(F)cc3)C2=O)on1` (centres unmarked) [Example 107, 3,3-bis(4-fluorophenyl)-1-{2-[[2-hydroxy-3-(2-{(E)-2-[3-(methoxymethyl)isoxazol-5-yl]vinyl}phenoxy)propyl](methyl)amino]ethyl}pyrrolidin-2-one] was 1880 nM; that for `O=C(CN1CCC(c2ccccc2)(c2ccccc2)C1=O)Nc1ccc(C(F)(F)F)cn1` [Example 246, 2-(2-oxo-3,3-diphenylpyrrolidin-1-yl)-N-[5-(trifluoromethyl)pyridin-2-yl]acetamide] was 3770 nM. Still for that read-out and setting: the result for `O=C(CN1CCC(c2ccccc2)(c2ccccc2)C1=O)N[C@H]1CC[C@H]2CN(Cc3cccc(C(F)(F)F)c3)C[C@H]21` (relative stereo) [Example 56, 2-(2-oxo-3,3-diphenylpyrrolidin-1-yl)-N-{(3aS*,4S*,6aR*)-2-[3-(trifluoromethyl)benzyl]octahydrocyclopenta[c]pyrrol-4-yl}acetamide] reads 1100 nM.
